This note sets out measurements from US6417202B1, “Pyridylpyrrole compounds useful as interleukin-and TNF antagonists” (Pfizer Inc., priority 1996, dated 2002).

SMILES strings stand for the structures.

Broadly, the melting point is the temperature, or range, at which the solid turns liquid.

The compound `CC(=O)c1c(-c2ccc3ccccc3c2)[nH]c(-c2ccncc2)c1C` [Example 59, 3-Acetyl-4-methyl-2-(2-naphthyl)-5-(4-pyridyl)-1H-pyrrole] showed a melting point of 116 to 123 °C.
Compound `CC(=O)c1c(-c2cccc3ccccc23)[nH]c(-c2ccncc2)c1C` [Example 61, 3-Acetyl-4-methyl-2-(1-naphthyl)-5-(4-pyridyl)-1H-pyrrole] came in with a melting point of 218 to 220 °C.
In the case of `Cc1c(-c2ccncc2)[nH]c(-c2ccncc2)c1C(=O)CC(C)C` [Example 90, 4-Methyl-3-(3-methylbutanoyl)-2,5-di(4-pyridyl)-1H-pyrrole] it was 199 to 201 °C.
